Columns and labels:
[1] = system: human keratinocyte cell line (HaCaT); test: Cytokine secretion on protein level in activated human keratinocyte cell line HaCaT (13-plex FACS / Luminex, supernatant); format: cell-based; conditions: substance 10^−9M
In short: (§1)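 Cytokine protein in supernatant is read by multiplex FACS or Luminex. Tripeptide-treated HaCaT cells or blood-derived human T-cells are stimulated beforehand with PMA/Ionomycin or IFN-γ. The most relevant analytes are IL-1, IL-2, IL-6, IL-12p70, IL-17, IFN-γ and TNF-α, sampled 48 h and 72 h after stimulation.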

primary murine T-cells = test: Cytokine secretion on protein level in activated primary murine T-cells (13-plex FACS / Luminex, supernatant); format: cell-based, C57BL/6 mice; conditions: for IL-1 cytokine concentration / IL-2 cytokine concentration / IL-4 cytokine concentration / IL-5 cytokine concentration / IL-6 cytokine concentration / IL-10 cytokine concentration / IL-13 cytokine concentration / IL-17 cytokine concentration / IL-21 cytokine concentration / IL-22 cytokine concentration / IL-27 cytokine concentration / TNF-α cytokine concentration / IFN-γ cytokine concentration: substance 10^−9M
In short: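 T-cells from secondary lymphatic organs of naïve C57BL/6 mice, stimulated with PMA/Ionomycin or IFN-γ; supernatant cytokines measured by 13-plex FACS 48 h and 72 h after stimulation. In another run, PMA/Ionomycin-stimulated cells received compounds at 10^−7, 10^−9 and 10^−11 M, with IFN-γ, IL-17 and IL-10 measured by Luminex.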

primary human T-cells = test: Cytokine secretion on protein level in activated primary human T-cells (13-plex FACS / Luminex, supernatant); format: cell-based; conditions: for IL-1 cytokine concentration / IL-2 cytokine concentration / IL-4 cytokine concentration / IL-5 cytokine concentration / IL-6 cytokine concentration / IL-9 cytokine concentration / IL-10 cytokine concentration / IL-12p70 cytokine concentration / IL-13 cytokine concentration / IL-17 cytokine concentration / IL-22 cytokine concentration / TNF-α cytokine concentration / INF-α cytokine concentration: substance 10^−9M
In short: as §1

[2] = HaCaT stimulated with PMA/Ionomycin
[3] = primary murine T-cells stimulated with IFN-γ
[4] = primary murine T-cells stimulated with PBS
[5] = primary murine T-cells stimulated with PMA/Ionomycin
[6] = primary human T-cells stimulated with IFN-γ
[7] = primary human T-cells stimulated with PBS
[8] = primary human T-cells stimulated with PMA/Ionomycin

N^α,N^α-dimethyl-(L)-Lys-(D)-Pro-N^α-methyl-(L)-Val-OH [Example 5]
IL-1 cytokine concentration ([1]; HaCaT stimulated with IFN-γ): 0 pg/mL | IL-2 cytokine concentration ([1]; HaCaT stimulated with IFN-γ): 0 pg/mL | IL-4 cytokine concentration ([1]; HaCaT stimulated with IFN-γ): 0 pg/mL | IL-5 cytokine concentration ([1]; HaCaT stimulated with IFN-γ): 0 pg/mL | IL-6 cytokine concentration ([1]; HaCaT stimulated with IFN-γ): 415.82 pg/mL | IL-9 cytokine concentration ([1]; HaCaT stimulated with IFN-γ): 0 pg/mL | IL-10 cytokine concentration ([1]; HaCaT stimulated with IFN-γ): 41.86 pg/mL | IL-12p70 cytokine concentration ([1]; HaCaT stimulated with IFN-γ): 0 pg/mL | IL-13 cytokine concentration ([1]; HaCaT stimulated with IFN-γ): 1974.31 pg/mL | IL-17 cytokine concentration ([1]; HaCaT stimulated with IFN-γ): 0 pg/mL | IL-22 cytokine concentration ([1]; HaCaT stimulated with IFN-γ): 0 pg/mL | TNF-α cytokine concentration ([1]; HaCaT stimulated with IFN-γ): 0 pg/mL | IFN-γ cytokine concentration ([1]; HaCaT stimulated with PBS): 0 pg/mL | IL-1 cytokine concentration ([1]; HaCaT stimulated with PBS): 0 pg/mL | IL-2 cytokine concentration ([1]; HaCaT stimulated with PBS): 149.51 pg/mL | IL-4 cytokine concentration ([1]; HaCaT stimulated with PBS): 152.8 pg/mL | IL-5 cytokine concentration ([1]; HaCaT stimulated with PBS): 133.49 pg/mL | IL-6 cytokine concentration ([1]; HaCaT stimulated with PBS): 218.63 pg/mL | IL-9 cytokine concentration ([1]; HaCaT stimulated with PBS): 28.51 pg/mL | IL-10 cytokine concentration ([1]; HaCaT stimulated with PBS): 89.86 pg/mL | IL-12p70 cytokine concentration ([1]; HaCaT stimulated with PBS): 0 pg/mL | IL-13 cytokine concentration ([1]; HaCaT stimulated with PBS): 0 pg/mL | IL-17 cytokine concentration ([1]; HaCaT stimulated with PBS): 18.83 pg/mL | IL-22 cytokine concentration ([1]; HaCaT stimulated with PBS): 0 pg/mL | TNF-α cytokine concentration ([1]; HaCaT stimulated with PBS): 0 pg/mL | IFN-γ cytokine concentration [1, 2]: 199.65 pg/mL | IL-1 cytokine concentration [1, 2]: 104.98 pg/mL | IL-2 cytokine concentration [1, 2]: 145.65 pg/mL | IL-4 cytokine concentration [1, 2]: 168.7 pg/mL | IL-5 cytokine concentration [1, 2]: 1.93 pg/mL | IL-6 cytokine concentration [1, 2]: 379.04 pg/mL | IL-9 cytokine concentration [1, 2]: 0 pg/mL | IL-10 cytokine concentration [1, 2]: 59.49 pg/mL | IL-12p70 cytokine concentration [1, 2]: 0 pg/mL | IL-13 cytokine concentration [1, 2]: 0 pg/mL | IL-17 cytokine concentration [1, 2]: 95.44 pg/mL | IL-22 cytokine concentration [1, 2]: 0 pg/mL | TNF-α cytokine concentration [1, 2]: 27.45 pg/mL | secretion / expression of pro-inflammatory cytokines (supernatant) (primary murine T-cells; activated primary murine T-cells): immunomodulatory effects were seen | IL-1 cytokine concentration (primary murine T-cells; [3]): 49.65 pg/mL | IL-2 cytokine concentration (primary murine T-cells; [3]): 89.76 pg/mL | IL-4 cytokine concentration (primary murine T-cells; [3]): 47.55 pg/mL | IL-5 cytokine concentration (primary murine T-cells; [3]): 263.27 pg/mL | IL-6 cytokine concentration (primary murine T-cells; [3]): 127.92 pg/mL | IL-10 cytokine concentration (primary murine T-cells; [3]): 1359.92 pg/mL | IL-13 cytokine concentration (primary murine T-cells; [3]): 0 pg/mL | IL-17 cytokine concentration (primary murine T-cells; [3]): 97.22 pg/mL | IL-21 cytokine concentration (primary murine T-cells; [3]): 0 pg/mL | IL-22 cytokine concentration (primary murine T-cells; [3]): 32.03 pg/mL | IL-27 cytokine concentration (primary murine T-cells; [3]): 20.07 pg/mL | TNF-α cytokine concentration (primary murine T-cells; [3]): 24.23 pg/mL | IFN-γ cytokine concentration (primary murine T-cells; [4]): 232.8 pg/mL | IL-1 cytokine concentration (primary murine T-cells; [4]): 56.42 pg/mL | IL-2 cytokine concentration (primary murine T-cells; [4]): 151.25 pg/mL | IL-4 cytokine concentration (primary murine T-cells; [4]): 53.6 pg/mL | IL-5 cytokine concentration (primary murine T-cells; [4]): 209.32 pg/mL | IL-6 cytokine concentration (primary murine T-cells; [4]): 117.95 pg/mL | IL-10 cytokine concentration (primary murine T-cells; [4]): 1311.94 pg/mL | IL-13 cytokine concentration (primary murine T-cells; [4]): 0 pg/mL | IL-17 cytokine concentration (primary murine T-cells; [4]): 0 pg/mL | IL-21 cytokine concentration (primary murine T-cells; [4]): 13.71 pg/mL | IL-22 cytokine concentration (primary murine T-cells; [4]): 27.66 pg/mL | IL-27 cytokine concentration (primary murine T-cells; [4]): 81.64 pg/mL | TNF-α cytokine concentration (primary murine T-cells; [4]): 32.89 pg/mL | IFN-γ cytokine concentration (primary murine T-cells; [5]): 2075.42 pg/mL | IL-1 cytokine concentration (primary murine T-cells; [5]): 178.79 pg/mL | IL-2 cytokine concentration (primary murine T-cells; [5]): 112.62 pg/mL | IL-4 cytokine concentration (primary murine T-cells; [5]): 81.4 pg/mL | IL-5 cytokine concentration (primary murine T-cells; [5]): 246.42 pg/mL | IL-6 cytokine concentration (primary murine T-cells; [5]): 189.2 pg/mL | IL-10 cytokine concentration (primary murine T-cells; [5]): 1233.45 pg/mL | IL-13 cytokine concentration (primary murine T-cells; [5]): 0 pg/mL | IL-17 cytokine concentration (primary murine T-cells; [5]): 0 pg/mL | IL-21 cytokine concentration (primary murine T-cells; [5]): 67.28 pg/mL | IL-22 cytokine concentration (primary murine T-cells; [5]): 29.38 pg/mL | IL-27 cytokine concentration (primary murine T-cells; [5]): 51.58 pg/mL | TNF-α cytokine concentration (primary murine T-cells; [5]): 29.15 pg/mL | secretion / expression of pro-inflammatory cytokines (supernatant) (primary human T-cells; activated primary human T-cells): immunomodulatory effects were seen | IL-1 cytokine concentration (primary human T-cells; [6]): 0 pg/mL | IL-2 cytokine concentration (primary human T-cells; [6]): 0 pg/mL | IL-4 cytokine concentration (primary human T-cells; [6]): 78.18 pg/mL | IL-5 cytokine concentration (primary human T-cells; [6]): 0 pg/mL | IL-6 cytokine concentration (primary human T-cells; [6]): 42.52 pg/mL | IL-9 cytokine concentration (primary human T-cells; [6]): 5.56 pg/mL | IL-10 cytokine concentration (primary human T-cells; [6]): 61 pg/mL | IL-12p70 cytokine concentration (primary human T-cells; [6]): 0 pg/mL | IL-13 cytokine concentration (primary human T-cells; [6]): 29.25 pg/mL | IL-17 cytokine concentration (primary human T-cells; [6]): 26.44 pg/mL | IL-22 cytokine concentration (primary human T-cells; [6]): 0 pg/mL | TNF-α cytokine concentration (primary human T-cells; [6]): 12.52 pg/mL | IL-1 cytokine concentration (primary human T-cells; [7]): 0 pg/mL | IL-2 cytokine concentration (primary human T-cells; [7]): 0 pg/mL | IL-4 cytokine concentration (primary human T-cells; [7]): 0 pg/mL | IL-5 cytokine concentration (primary human T-cells; [7]): 0 pg/mL | IL-6 cytokine concentration (primary human T-cells; [7]): 94.11 pg/mL | IL-9 cytokine concentration (primary human T-cells; [7]): 6.74 pg/mL | IL-10 cytokine concentration (primary human T-cells; [7]): 119.04 pg/mL | IL-12p70 cytokine concentration (primary human T-cells; [7]): 0 pg/mL | IL-13 cytokine concentration (primary human T-cells; [7]): 35.75 pg/mL | IL-17 cytokine concentration (primary human T-cells; [7]): 0 pg/mL | IL-22 cytokine concentration (primary human T-cells; [7]): 0 pg/mL | INF-α cytokine concentration (primary human T-cells; [7]): 0 pg/mL | TNF-α cytokine concentration (primary human T-cells; [7]): 0 pg/mL | IL-1 cytokine concentration (primary human T-cells; [8]): 748 pg/mL | IL-2 cytokine concentration (primary human T-cells; [8]): 4369.09 pg/mL | IL-4 cytokine concentration (primary human T-cells; [8]): 92.43 pg/mL | IL-5 cytokine concentration (primary human T-cells; [8]): 392.66 pg/mL | IL-6 cytokine concentration (primary human T-cells; [8]): 1051.51 pg/mL | IL-9 cytokine concentration (primary human T-cells; [8]): 193.58 pg/mL | IL-10 cytokine concentration (primary human T-cells; [8]): 789.38 pg/mL | IL-12p70 cytokine concentration (primary human T-cells; [8]): 0 pg/mL | IL-13 cytokine concentration (primary human T-cells; [8]): 912.49 pg/mL | IL-17 cytokine concentration (primary human T-cells; [8]): 1164.75 pg/mL | IL-22 cytokine concentration (primary human T-cells; [8]): 0 pg/mL | INF-α cytokine concentration (primary human T-cells; [8]): 8770.62 pg/mL | TNF-α cytokine concentration (primary human T-cells; [8]): 2187.46 pg/mL

— patent US10954269B2, “Anti-inflammatory tripeptides” (Dr. August Wolff Gmbh & Co. KG Arzneimittel, priority 2013, dated 2021)
